Results from US20120010281A1, “ANTIMICROBIAL AND ANTI[…]” (THE TRUSTEES OF PRINCETON UNIVERSITY, priority 2010, published 2012).
Converted amounts (≈) assume the structure as drawn.

Test system: M. tuberculosis mc^27000
Assay: microbe, parasite or virus in culture
Format: cell-based
Settings: for MIC: Mycobacterium tuberculosis, 120 h, range of assayed concentrations that bounds the mean of three independent determinations, read-out: mc^27000 7H9 MIC; for inhibitory activity against Mtb mc^27000 (in words): comment on the Table 1 MIC values, relative to tiamulin

SMILES | MIC [µg/mL] | inhibitory activity against Mtb mc^27000 (in words)
C=CC1(C)C[C@@H](OC(=O)CO)C2(C)C(C)CCC3(CCC(=O)C32)[C@@H](C)[C@@H]1O (some centres unmarked) [Pleuromutilin (1), Pleuromutilin, reference compound] | 25 to 50 (≈ 66 to 132 µM) | low micromolar MIC values
CCN(CC)CCSCC(=O)O[C@H]1C/C(C)=C\CC23CCCC1C2C(=O)CC3 (some centres unmarked) [Compound 25] | 50 (≈ 123 µM) | moderate, yet significant, level of activity
C=C1C[C@@H](OC(=O)CSCCN(CC)CC)C2CCCC3(CCC(=O)C23)C[C@H]1O (some centres unmarked) [Compound 20c] | 12 to 25 (≈ 28.3 to 59 µM) | compares favorably to tiamulin
C=C[C@]1(C)C[C@@H](OC(=O)CSCCN(CC)CC)C2(C)C(C)CCC3(CCC(=O)C32)[C@@H](C)[C@@H]1O (some centres unmarked) [tiamulin (3), tiamulin, reference compound] | 12 to 25 (≈ 24.3 to 50.6 µM) | low micromolar MIC values
C=C1C[C@@H](OC(=O)CO)C2CCCC3(CCC(=O)C23)C[C@@H]1O (some centres unmarked) [Compound 4] | > 200 | –
C=C1C[C@@H](OC(=O)CSCCN(CC)CC)C2CCCC3(CCC(=O)C23)C[C@@H]1O (some centres unmarked) [Compound 20a] | 50 to 100 (≈ 118 to 236 µM) | attenuated activity
